The values below come from patent US7714034B2, “Photopolymerizable dental materials with bisacylphosphine oxides as initiators” (Ivoclar Vivadent AG, priority 2006, dated 2010).

This data set in a line: solubility of the photoinitiator. Format: physicochemical. From the text: The bisacylphosphine oxides of the formula (I) absorb in the UV region and also show an absorption greater than 400 nm, so that their photolysis and radical formation can be induced by irradiation with halogen lamps customary in the dental field or also with LED lamps. The bisacylphosphine oxides of the formula (I) contain polymerizable groups and can be incorporated into polymers e.g. by copolymerization. Moreover, the bisacylphosphine oxides according to the invention are very well soluble in polar organic solvents such as acetone, ethanol, acetonitrile or tetrahydrofuran (THF) or their mixtures with water, i.e. the solubility is at least 0.01 mmol/g. It is particularly advantageous that the bisacylphosphine oxides according to the invention show a better storage stability compared with known bisacrylphosphine oxides. The compounds are characterized by a high hydrolysis stability, i.e. they are not more than 15% hydrolyzed in a mixture of […]:H2O (60:40) at 42° C. in 60 days.
To prepare the model formulation, 0.022 mmol of the photoinitiator described in Example 1 were weighed into an analysis tube and made up to 1.00 g with the above composition and dissolved accompanied by slight heating. […]

`C=CCOCCOCc1c(C)cc(C)c(C(=O)P(=O)(C(=O)c2c(C)cc(C)c(COCCOCC=C)c2C)c2ccccc2)c1C` [BAPOmAOEM]: the “solubility compared with Irgacure 819” value is recorded as “better solubility”. Consider `Cc1cc(C)c(C(=O)P(=O)(C(=O)c2c(C)cc(C)cc2C)c2ccccc2)c(C)c1` [Irgacure819, bis-(2,4,6-trimethylbenzoyl)-phenylphosphine oxide], for which the maximum solubility entry (in the primer composition (DEBAMP/DHPAE/water)) was “^5Irgacure 819 was used due to its low solubility in a concentration of 0.005 mmol/g (= maximum solubility)”.
